This is an account of results in patent US9783551B2, “Pyranochromenyl phenol derivative, and pharmaceutical composition for treating metabolic syndrome or inflammatory disease” (GLACEUM, INC., priority 2013, dated 2017).

Data set [1] can be described thus: Chemical stability in 1% NaOH in MeOH (HPLC). Type of data set: physicochemical. The procedure: (§1) The relative chemical stability of glabridin of Preparation Example 1, Example 3 (Compound 4), Example 4 (Compound 5) and Example 14 (Compound 15) were compared with each other. That is, 50 mg of each of glabridin, Compound 4, Compound 5, and Compound 15 was exactly weighed, dissolved in 50 ml of 1% HCl in MeOH and 10 ml of 1% NaOH in MeOH, and the concentrations of the compounds were examined by HPLC at each time level of 0, 8 hrs, 12 hrs, 24 hrs, 48 hrs, and 72 hrs. At this time, the concentrations of the compounds remaining in 1% HCl in MeOH and 1% NaOH in MeOH were determined using an internal standard (Compound 14 of Example 13). That is, 10 mg of Compound 14 was exactly weighed and dissolved in 100 ml of acetonitrile, 9 ml of this solution was mixed with 1 ml of the sample aliquoted at each time level, the mixture was analyzed by HPLC, and the concentrations of the compounds in the internal standard and in the above samples were determined by comparing the initial values.
(§2) The concentrations of the compounds remaining in 1% HCl in MeOH and 1% NaOH in MeOH at each time level are in the following Table 8 and FIG. 7 and the following Table 9 and FIG. 8, respectively.
(§3) The numerical values exceeding 100% in the following Tables 8 and 9 show those measured at a concentration is slightly higher than the initial measurement value, and this is due to the fact that an average value of the measured values was simply shown without considering a statistical error generated during the measurement. Since the measured value of about 95% or more is deemed to have practically no change in concentration, it may be seen that the compounds of the present invention are excellent in chemical stability.

A further data set has as its target PTP1B (Homo sapiens (Human), UniProt P18031). In words: Experiment of PTP1B inhibition (p-NPP dephosphorylation). Type of data set: biochemical. The conditions noted are these: 2 mM p-NPP substrate, 30° C., 30 minutes. The source says: With respect to PTP1B, the degrees of inhibition (IC50 The half maximal inhibitory concentration) of glabridin, and compounds of Preparation Example 2 (Compound 1), Example 2 (Compound 3), Example 3 (Compound 4), Example 4 (Compound 5), Example 13 (Compound 14), Example 14 (Compound 15), Example 15 (Compound 16), Example 17 (Compound 18), Example 18 (Compound 19) and Example 20 (Compound 21) were compared to each other. For this purpose, the degree of inhibition activity for PTP1B was investigated by using 2 mM p-nitrophenyl phosphate (p-NPP) as a substrate to measure the dephosphorylation degree. First, PTP1B diluted with distilled water was reacted with 2 mM p-nitrophenyl phosphate {p-NPP, 0.1 M NaCl, 1 mM EDTA, 50 mM citrate pH 6.0, and 1 mM dithiothreitol (DTT)} and Compound 1 at various concentrations at 30° C. for 30 minutes, and then the reaction was terminated with a 1 N-sodium hydroxide (NaOH) solution. The absorbance of the samples thus prepared was measured to confirm the inhibition degree (IC50: The half maximal inhibitory concentration) for PTP1B activity according to the concentration of Compound 1. Even for glabridin, Compound 3, Compound 4, Compound 5, Compound 14, Compound 15, Compound 16, Compound 18, Compound 19, and Compound 21, the same measurement was performed.

The subject of data set [2] is DIO mice. Briefly: Anti-obesity effect for DIO mice (body weight). Type of data set: in vivo, C57BL/6 mice. Conditions: Mus musculus, 672 h; 4 weeks, 150 mg/kg, oral gavage once daily. The method, then:
(§4) Five-week-old female C57BL/6 mice (Narabio Co., Ltd.) were purchased and fed with only high-fat diet for at least 10 weeks to produce diet induced obesity ([…]) mice. Samples were exactly taken from Preparation Example 1 (glabridin) and the compounds of Examples of the present invention (Compounds 1 to 5, 7, 9, 11, 14 to 16, 21, and 23) according to the administration dose and put into Falcon tubes, 3 ml of a 0.5% methyl cellulose aqueous solution was added thereto and a vortex mixer was used to primarily mix the ingredients in a soft manner, and then a homogenizer (30,000 rpm, Ultra-Turrax® T10 Basic, IKA) was used to treat the sample for 3 minutes while 1.5 ml of a 0.5% methyl cellulose aqueous solution was added thereto. The sample thus prepared was administered through oral gavage using a disposable plastic syringe once daily for 28 days (4 weeks). The body weight was measured twice a week while the DIO mice were bred in this manner. Based on the data thus calculated, the anti-obesity effect (%) was calculated according to the equation defined as follows. Anti-Obesity Effect={(Body weight of control group)−(Body weight of experimental group)}/(Body weight of control group)×100

Another data set concerns BV2 microglia cells. In words: BV2 cell NO assay (LPS-induced NO production, Griess reagent). Format: cell-based. The conditions noted are these: Mus musculus, BV-2, LPS 1 μg/ml, 24 hours. The procedure: (§5) After the pretreatment, 0.5 mg/ml of the MTT (Sigma, M2128) reagent was further added thereto. After the cells were cultured in a 5% CO2 incubator, the supernatant was discarded, 150 μl of DMSO was added and was shaken for 30 minutes, and an ELISA micro plate reader (Bio Rad Laboratories Inc., California, USA, Model 680) was used to measure the absorbance at a wavelength of 540 nm. All the experimental values were calculated as an average value of three repeated experimental values of the cell protection rate for the control group, and an experiment of suppressing the NO production for each compound was carried out at a concentration in which no cytotoxicity was shown.
After the reaction, an ELISA micro plate reader (Bio Rad Laboratories Inc., California, USA, Model 680) was used to measure the absorbance at a wavelength of 540 nm. The suppression rate was calculated as a difference in amount of NO produced between the control group and the experimental group, and as shown in the following Table 6 and FIG. 6, Compounds 4, 5, 15, 16, 18, and the like of the present invention were excellent in the effect of suppressing the production of NO, and the effect is also about 5 times to about 9 times better than that of glabridin.

The test system of a further data set is RAW264.7 macrophages. In words: RAW264.7 macrophage NO assay (LPS-induced NO production, Griess reagent). Format: cell-based. The conditions noted are these: for IC50: Mus musculus, RAW264.7, NO production, LPS 1 μg/ml, 24 hours. The procedure: as §5, with “pretreatment,” for “pretreatment, 0.5 mg/ml of”, “reagent at a concentration of 0.5 mg/ml” for “reagent”, “incubator for 4 hours,” for “incubator,”
After the reaction, an ELISA micro plate reader (Bio Rad Laboratories Inc., California, USA, Model 680) was used to measure the absorbance at a wavelength of 540 nm. The suppression rate was calculated as a difference in amount of NO produced between the control group and the experimental group, and as shown in the following Table 7, Compounds 4, 5, 15, 16, 18, and the like of the present invention were excellent in the effect of suppressing the production of NO.

The nature of data set [3]: Chemical stability in 1% HCl in MeOH (HPLC). Format: physicochemical. The procedure: as §1, §2, §3
Data set [4] concerns DIO mice. Briefly: Organ weights and blood biochemistry of DIO mice after 28 days of administration. The conditions noted are these: 150 mg/kg. Type of data set: in vivo, C57BL/6 mice. The method, then:
as §4
After the experiment was performed for 28 days (4 weeks) as described above, blood was simultaneously taken while the experimental animal was finally sacrificed, and each of the organs (liver, heart, kidney, pancreas, fat tissues and the like) was removed to measure the weight and observe peculiar matters.
In Table 3, { }, ( ) and the like were used in order to differentiate experiments which had been performed at different periods. Experiments without the parenthesis were those simultaneously performed under the same conditions.

In another data set the test system is C2C12 cells. Briefly: Glucose uptake (2-NBDG) in C2C12 cells. Conditions: 24 hours. Type of data set: cell-based. The procedure: In terms of capacity of glucose uptake in C2C12 cells, the compound (Compound 15) of Example 14 of the present invention was compared with the existing Rosiglytazone and Metformin which were used or are currently used as a therapeutic agent for diabetes. The C2C12 cell was cultured in a Dulbecco's modified eagle medium (DMEM) supplemented with 10% fetal bovine serum (FBS), penicillin (120 unit/mL), and streptomycin (75 μg/mL), the medium used for differentiation was a DMEM medium supplemented with 1% horse serum, and the C2C12 cell was cultured in the DMEM medium for 4 days. The cell thus cultured was treated with Compound 15 in a low-glucose, serum-free medium supplemented with 2-[N-(7-nitrobenz-2-oxa-1,3-diazol-4-yl)amino]-2-deoxy-d-glucose (2-NBDG) for 24 hours to measure the glucose absorbance at an excitation wavelength of 485 nm and an emission wavelength of 535 nm using a fluorescent detector. The same experiment was performed on Rosiglytazone and Metformin.

PTP1B, sequence (P18031 whole entry, species assumed): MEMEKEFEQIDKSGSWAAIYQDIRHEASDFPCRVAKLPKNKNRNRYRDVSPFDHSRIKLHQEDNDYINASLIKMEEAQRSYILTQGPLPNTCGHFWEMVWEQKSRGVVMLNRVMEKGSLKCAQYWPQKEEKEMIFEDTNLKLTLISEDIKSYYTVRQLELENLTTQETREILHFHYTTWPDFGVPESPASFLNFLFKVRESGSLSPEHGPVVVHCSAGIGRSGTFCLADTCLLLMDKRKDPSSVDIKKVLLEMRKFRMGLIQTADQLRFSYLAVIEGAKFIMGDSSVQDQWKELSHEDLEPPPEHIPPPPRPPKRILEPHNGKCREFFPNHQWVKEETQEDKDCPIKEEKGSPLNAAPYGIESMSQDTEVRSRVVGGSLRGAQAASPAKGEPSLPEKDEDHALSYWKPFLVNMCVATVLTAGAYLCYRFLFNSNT

By IC50 is commonly meant the concentration that gives 50% inhibition. Lower therefore signals greater potency in that assay. By inhibition in vivo is commonly meant the percentage by which the read-out fell short of the control. Lower therefore signals a response near the control. For the compound `CC1(C)C=Cc2c(ccc3c2OC[C@@H](c2ccc(O)cc2O)C3)O1` [Glabridin, glabridin, reference compound], the “concentration of compound remaining” value in data set [1] (0) is given as 100%; in data set [1] (8 h), 71%; in data set [1] (24 h) it was 38%; in data set [1] (48 h) it was 23%; in data set [1] (72 h), 13%; in data set [3] (0), 100%. Moreover, the “concentration of compound remaining” value in data set [3] (8 h) turned out to be 99%; in data set [3] (24 h), 94%; in data set [3] (48 h), 82%; in data set [3] (72 h) it was 74%. Besides, the IC50 is 48 µM against PTP1B, 19.6 µM in the data set on BV2 microglia cells and 9.3 µM in the data set with RAW264.7 macrophages. The compound further gave an inhibition in vivo at 150 mg/kg in the data set with DIO mice [2] of 2%. Besides, the “ALT (U/L)” value is recorded as 41 U/L in the data set with DIO mice [4] (experiment without parenthesis) and “{89} U/L” in the data set on DIO mice [4] ({ } experiment). Further, the “AST (U/L)” value in the data set on DIO mice [4] (experiment without parenthesis) is reported as 90 U/L; with DIO mice [4] ({ } experiment), “{170} U/L”. In addition, the BMI with DIO mice [4] (experiment without parenthesis) is recorded as 4.2; in the data set with DIO mice [4] ({ } experiment), “{4.2}”. Moreover, the “FFA (μEq/L)” value in the data set with DIO mice [4] (experiment without parenthesis) is on record as 1520 μEq/L; in the data set on DIO mice [4] ({ } experiment) it was “{1913} μEq/L”. Also, the “Fat (g), weight of fat removed around the epididymis and the kidney” value is given as 2.70 g in the data set with DIO mice [4] (experiment without parenthesis) and “{1.92} g” in the data set on DIO mice [4] ({ } experiment). Further, in the data set on DIO mice [4] (experiment without parenthesis), the “LDL” value is given as 10 mg/dL. Besides, the “Liver (g), weight of liver” value in the data set with DIO mice [4] (experiment without parenthesis) was 1.23 g; in the data set with DIO mice [4] ({ } experiment), “{1.48} g”. The “LDL (mg/dL)” value with DIO mice [4] ({ } experiment) was “{17} mg/dL”.
Turning to `CN(C)C(=N)N=C(N)N` [Metformin], the “2-NBDG uptake (Fold Induction)” value in the data set with C2C12 cells (treatment concentration 20 μM) was determined as 1.89 ± 0.03 Fold Induction.
For the compound `CN(CCOc1ccc(CC2SC(=O)NC2=O)cc1)c1ccccn1` (stereo not drawn) [Rosiglytazone], the “2-NBDG uptake (Fold Induction)” value in the data set on C2C12 cells (treatment concentration 50 μM) stood at 1.94 ± 0.15 Fold Induction.
On to `CCc1ccc(C2COc3c(ccc4c3CCC(C)(C)O4)C2)c(O)c1` (stereo not drawn) [Compound 4, 3-(2-hydroxy-4-ethylphenyl)-8,8-dimethyl-2,3,4,8,9,10-hexahydropyrano [2,3-f] chromene], for which the “concentration of compound remaining” value was 100% in data set [1] (0); 101% in data set [1] (8 h); 101% in data set [1] (24 h); 99% in data set [1] (48 h); 100% in data set [1] (72 h); 100% in data set [3] (0). In addition, the “concentration of compound remaining” value amounted to 99% in data set [3] (8 h), 101% in data set [3] (24 h), 101% in data set [3] (48 h) and 100% in data set [3] (72 h). For the same compound, the stability in words entry in data set [1] (until 3 days (72 hours)) and in data set [3] (until 3 days (72 hours)) was “very stable” each time. In addition, the figures for the IC50 at PTP1B, in the data set on BV2 microglia cells and in the data set with RAW264.7 macrophages were 2.9 µM, 3.7 µM and 8.6 µM, respectively. The compound also yielded an inhibition in vivo at 150 mg/kg in the data set with DIO mice [2] of 18%. In the data set on RAW264.7 macrophages (RAW264.7 macrophages, in words), the “effect of suppressing the production of NO” value was “excellent”. In addition, the “ALT (U/L)” value with DIO mice [4] (( ) experiment) was “(58) U/L”. The “AST (U/L)” value with DIO mice [4] (( ) experiment) is “(209) U/L”. Further, in the data set on DIO mice [4] (( ) experiment), the BMI entry is recorded as “(2.9)”. For the same compound, the “FFA (μEq/L)” value in the data set on DIO mice [4] (( ) experiment) is listed as “(2380) μEq/L”. The “Fat (g), weight of fat removed around the epididymis and the kidney” value in the data set on DIO mice [4] (( ) experiment) is on record as “(1.20) g”. In addition, in the data set on DIO mice [4] (( ) experiment), the “LDL (mg/dL)” value was “(18) mg/dL”. The “Liver (g), weight of liver” value with DIO mice [4] (( ) experiment) is reported as “(1.25) g”.
